Laboratory results: article PMC11651915, “Small molecule protein assembly modulators with pan-cancer therapeutic efficacy” (Open Biology, 2024)

Key:
HT-29 = test: In-house cancer cell viability screen (AlamarBlue); type: cell-based; settings: Homo sapiens, 72 h
COR-L105 = test: Eurofins OncoPanel (CellTiter-Glo); type: cell-based; settings: Homo sapiens, 72 h, 3 days
SJSA1-OSA = test: Eurofins OncoPanel (CellTiter-Glo); type: cell-based; settings: Homo sapiens, 72 h, 3 days
U2OS = test: Eurofins OncoPanel (CellTiter-Glo); type: cell-based; settings: Homo sapiens, 72 h, 3 days
K-562 = test: cells; type: cell-based; settings: Homo sapiens, K562, NCI-60, 48 h
MOLT-4 = test: cells; type: cell-based; settings: Homo sapiens, NCI-60, 48 h
RPMI-8226 = test: cells; type: cell-based; settings: Homo sapiens, NCI-60, 48 h
T-47D = test: cells; type: cell-based; settings: Homo sapiens, T47D, NCI-60, 48 h
[1] = tested on: BB1 patient biopsy derived cell line (benign adenoma); test: BB1 and BB5 adenoma versus carcinoma screen (confocal imaging); type: cell-based, human; settings: Homo sapiens, 60 h, percent ChromaLive negative
[2] = tested on: BB5 patient biopsy derived cell line (breast adenocarcinoma); test: as above; type: cell-based; settings: Homo sapiens, 60 h, percent ChromaLive negative
HL-60(TB) = test: cells; settings: Homo sapiens, HL-60, 48 h
SR = test: cells; settings: Homo sapiens, 48 h
HOP-92 = test: cells; settings: Homo sapiens, HOP-92, 48 h
HCC-2998 = test: cells; settings: Homo sapiens, HCC 2998, 48 h
SF-539 = test: cells; settings: Homo sapiens, SF-539, 48 h
LOX IMVI = test: cells; settings: Homo sapiens, 48 h
UACC-62 = test: cells; settings: Homo sapiens, UACC-62, 48 h
NCI/ADR-RES = test: cells; settings: Homo sapiens, 48 h
ACHN = test: cells; settings: Homo sapiens, 48 h
TK-10 = test: cells; settings: Homo sapiens, TK-10, 48 h
MDA-MB-231/ATCC = test: cells; settings: Homo sapiens, MDA-MB-231, 48 h
BT-549 = test: cells; settings: Homo sapiens, BT-549, 48 h
[3] = tested on: A549 human lung cancer xenograft; test: A549 xenograft studies; settings: A549 xenograft, PAV-951 study, 14 days, IV; PAV-951 1.5 mg kg^−1 once daily, Gemcitabine 100 mg kg^−1 twice weekly
MeWo = test: Eurofins OncoPanel (CellTiter-Glo); settings: Homo sapiens, 72 h

`CC(C)CCNc1ncnc2cc(N3CCN(c4ccc5c(NCCC(C)C)ncnc5c4)CC3)ccc12` [PAV-951] gave an IC50 (HT-29) of 101 nM, an IC50 (COR-L105) of 962 nM and an IC50 (SJSA1-OSA) of 724 nM. The IC50 (U2OS) was 368 nM, the GI50 (K-562) was 131 nM and the GI50 (MOLT-4) was 223 nM. The GI50 (RPMI-8226) was 213 nM, the GI50 (T-47D) was 952 nM and the IC50 [1] was 3350 nM. For the same compound, the IC50 [2] was 500 nM, the GI50 (HL-60(TB)) was 269 nM and the GI50 (SR) was 51.9 nM. The CC50 (SR; read-out: LC50) was 1900 nM, the GI50 (HOP-92) was 1230 nM and the CC50 (HOP-92; read-out: LC50) was 6220 nM. It also gave a GI50 (HCC-2998) of 967 nM, a CC50 (HCC-2998; read-out: LC50) of 5130 nM and a GI50 (SF-539) of 683 nM. For the same compound, the CC50 (SF-539; read-out: LC50) was 4530 nM, the GI50 (LOX IMVI) was 183 nM and the CC50 (LOX IMVI; read-out: LC50) was 684 nM. For the same compound, the GI50 (UACC-62) was 1380 nM, the CC50 (UACC-62; read-out: LC50) was 5610 nM and the GI50 (NCI/ADR-RES) was 401 nM. For the same compound, the CC50 (NCI/ADR-RES; read-out: LC50) was 4850 nM, the GI50 (ACHN) was 586 nM and the CC50 (ACHN; read-out: LC50) was 4280 nM. It also gave a GI50 (TK-10) of 2160 nM, a CC50 (TK-10; read-out: LC50) of 6140 nM and a GI50 (MDA-MB-231/ATCC) of 488 nM. It also gave a CC50 (MDA-MB-231/ATCC; read-out: LC50) of 4420 nM, a GI50 (BT-549) of 1590 nM and a CC50 (BT-549; read-out: LC50) of 6040 nM. The “tumour growth inhibition (TGI)” value [3] was 72% and the IC50 (MeWo) was 1180 nM.
